Experimental findings from ChEMBL document CHEMBL5241090, “A comprehensive overview of β-carbolines and its derivatives as anticancer agents” (Eur J Med Chem, 2021) are described below.

What all share (type): functional, cell-based
Test [1] relates to SGC-7901. In words: Cytotoxicity against human SGC-7901 cells assessed as reduction in optical density by MTT assay. Background: Formazan colour is commonly taken as a measure of viable cells.
Test [2] is described as follows: Cytotoxicity against human 95-D cells assessed as reduction in optical density by MTT assay.
Test [3] has as its system HepG2. The test is described as follows: Cytotoxicity against human HepG2 cells assessed as reduction in optical density by MTT assay.
For test [4], the system named is HCT-116. The test is described as follows: Cytotoxicity against human HCT-116 cells by MTT assay.
The test system of test [5] is A549. In words: Cytotoxicity against human A549 cells.
Test [6] deals with NCI-H1299. The test is described as follows: Cytotoxicity against human NCI-H1299 cells.
Test [7] has as its system HCT-116. The test is described as follows: Cytotoxicity against human HCT-116 cells.
In test [8] the test system is DU-145. The test is described as follows: Cytotoxicity against human DU-145 cells.
In test [9] the test system is MCF7. The test is described as follows: Cytotoxicity against human MCF7 cells.
For test [10], the system named is HeLa. The test is described as follows: Cytotoxicity against human HeLa cells.
For test [11], the system named is ACHN. In words: Cytotoxicity against human ACHN cells.
Test [12] has as its system DU-145. The test is described as follows: Antiproliferative activity against human DU-145 cells incubated for 48 hrs by MTT assay. The conditions noted are these: DU-145, 48 h.
In test [13] the test system is HCC1395. In words: Antiproliferative activity against human HCC1395 cells incubated for 48 hrs by MTT assay. The conditions noted are these: HCC1395, 48 h.
Test [14] is described as follows: Cytotoxicity against human Lu1 cells.
Test [15] has as its system LNCaP. In words: Cytotoxicity against human LNCaP cells.
For test [16], the system named is HUVEC. In words: Cytotoxicity against human HUVEC cells.
In test [17] the test system is TERT-RPE1. In words: Cytotoxicity against human TERT-RPE1 cells. The settings on record: RPE-1.
Test [18] relates to Col2. In words: Cytotoxicity against human Col2 cells.
In test [19] the test system is Keratinocyte. The test is described as follows: Cytotoxicity against guinea pig ear keratinocytes using [3H]thymidine by liquid scintillation counting analysis. The conditions noted are these: Cavia porcellus.
Test [20] has as its system Panel NCI-60 (60 carcinoma cell lines). The test is described as follows: Cytotoxicity against human Panel NCI-60 (60 carcinoma cell lines).
Test [21] deals with A549. The test is described as follows: Growth inhibition of human A549 cells incubated for 72 hrs by SRB assay. The settings on record: A549, 72 h. On the technique in general: The SRB assay estimates cell density from bound dye.
For test [22], the system named is MDA-MB-231. The test is described as follows: Growth inhibition of human MDA-MB-231 cells incubated for 72 hrs by SRB assay. The conditions noted are these: MDA-MB-231, 72 h.
The subject of test [23] is HT-29. The test is described as follows: Growth inhibition of human HT-29 cells incubated for 72 hrs by SRB assay. The settings on record: HT-29, 72 h.

Converted amounts (≈) assume the structure as drawn.

The term IC50 denotes the concentration needed to halve the response being measured. In the case of `CCn1c2cc(OC)ccc2c2ccnc(C)c21`, the IC50 was below 36 µM in [1], 36 µM in test [2] and below 36 µM in [3].

`COC(=O)c1cc2c([nH]c3ccccc32)c(C(C)=O)n1` returned an IC50 in test [4] of 9.67 µg/mL (≈ 36 µM).

As for `CC(=O)c1nc(C(=O)NCCc2ccc(O)cc2)cc2c1[nH]c1ccccc12`, the IC50 in [5], in [6] and in [7] was 37.9 µM in each case.

As for `CC(=O)c1nc(C(=O)NCCc2ccccc2)cc2c1[nH]c1ccccc12`, the IC50 in test [5], in test [6] and in test [7] was 37.4 µM each time.

On to `O=C(/C=C/c1cc2c([nH]c3ccccc32)c(-c2ccc(C(F)(F)F)cc2)n1)c1ccco1`, for which the IC50 in test [5], in test [8], in test [9], in [10] and in test [11] was 1.89 µM each time.

As for `CC(=O)N1N=C(c2ccco2)CC1c1cc2c([nH]c3ccccc32)c(-c2ccc(C(F)(F)F)cc2)n1` (stereo unspecified), the IC50 in test [5], in test [8], in test [9], in test [10] and in test [11] was 1.94 µM throughout.

For `COc1ccc2c3ccnc(C)c3n(CCCc3ccccc3)c2c1`, the IC50 was below 36 µM in test [1], 36 µM in [2] and below 36 µM in [3].

In the case of `COc1ccc2c3ccnc(C)c3n(C)c2c1`, the IC50 in test [1], in [2] and in test [3] was below 36 µM throughout.

Consider `COc1ccc2c(c1)c1ccnc3ccc(=O)n2c31`, for which the values for the IC50 in test [12] and in test [13] were 1.58 µg/mL (≈ 6.31 µM) and 14.7 µg/mL (≈ 58.7 µM), respectively.

As for `O=c1cc2c3ccccc3n3c(=O)ccc([nH]1)c23`, the IC50 in [14], in test [15], in [16], in test [17] and in [18] was 0.506 µM in each case.

As to `COc1cnc2ccc(=O)n3c4ccccc4c1c23`, in [19], the IC50 came to 5.76 µg/mL (≈ 23 µM).

As for `Fc1ccc(-c2nc(-c3nc4ccc(Cl)cc4[nH]3)cc3c2[nH]c2ccccc23)cc1`, half-maximal inhibition in [20] (IC50) required 0.3 µM.

As for `COc1ccc2nc(-c3cc4c([nH]c5ccccc54)c(-c4ccc(F)c(F)c4)n3)[nH]c2c1`, in [20], the IC50 was found to be 0.3 µM.

With `NC(=O)c1c(-c2c[nH]c3cc(O)ccc23)ncc2[nH]c3ccc(O)cc3c12`, the IC50 in test [21] is 35 µg/mL (≈ 97.7 µM); in test [22] it was 42 µg/mL (≈ 117 µM); in test [23] it was 45 µg/mL (≈ 126 µM).

With `COc1ccc2[nH]c3cnc(-c4c[nH]c5cc(O)ccc45)c(C(=O)O)c3c2c1`, the values for the IC50 in test [21], in test [22] and in test [23] were 100 µg/mL (≈ 268 µM), 90 µg/mL (≈ 241 µM) and 35 µg/mL (≈ 93.7 µM), respectively.

In turn, `COc1ccc(-c2nc(-c3nc4ccc(OC)cc4[nH]3)cc3c2[nH]c2ccccc23)cc1` yielded an IC50 in test [20] of 0.3 µM.

Regarding `O=C(O)c1c(-c2c[nH]c3cc(O)ccc23)ncc2[nH]c3ccc(O)cc3c12`, the figures for the IC50 in test [21], in [22] and in [23] were 30 µg/mL (≈ 83.5 µM), 25 µg/mL (≈ 69.6 µM) and 42 µg/mL (≈ 117 µM), respectively.
